Data as given in patent publication US20260028354A1, “TETRAHYDRONAPHTHALENE DERIVATIVES AS ESTROGEN RECEPTOR DEGRADERS” (REGENT OF THE UNIVERSITY OF MICHIGAN, priority 2022, published 2026).
Like-named read-outs stand apart in the source and are kept apart here.

Assays:
ER in T47D cells = ER in T47D cells (Homo sapiens (Human), UniProt P03372); assay: In-cell Western (ICW) ER degradation assay in T47D cells; type: cell-based; details: 16 hrs treatment; for DC50: ER degradation; for Dmax: maximal ER degradation, read-out: T47D Dmax
Sequence of ER in T47D cells (P03372 whole entry): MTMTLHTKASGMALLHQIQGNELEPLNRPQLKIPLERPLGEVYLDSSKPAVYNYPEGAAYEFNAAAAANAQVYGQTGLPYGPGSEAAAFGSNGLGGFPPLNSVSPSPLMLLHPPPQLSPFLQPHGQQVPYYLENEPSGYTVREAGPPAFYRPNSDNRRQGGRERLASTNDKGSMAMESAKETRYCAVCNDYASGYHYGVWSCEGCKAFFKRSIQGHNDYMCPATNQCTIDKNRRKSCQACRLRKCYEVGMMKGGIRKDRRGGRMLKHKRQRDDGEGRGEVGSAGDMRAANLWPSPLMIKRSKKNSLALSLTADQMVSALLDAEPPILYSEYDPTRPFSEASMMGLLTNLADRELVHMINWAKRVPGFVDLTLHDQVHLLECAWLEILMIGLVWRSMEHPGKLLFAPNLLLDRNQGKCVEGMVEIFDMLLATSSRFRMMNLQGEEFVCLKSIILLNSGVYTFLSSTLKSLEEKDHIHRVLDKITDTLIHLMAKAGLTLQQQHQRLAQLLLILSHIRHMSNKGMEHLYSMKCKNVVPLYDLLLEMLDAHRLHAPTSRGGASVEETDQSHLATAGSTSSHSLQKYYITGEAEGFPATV

ERα_LBD (GST) = ERα_LBD (GST) (Homo sapiens (Human), UniProt P03372); assay: IC50 measurements for binding to ERα_LBD (GST), LanthaScreen TR-FRET competitive binding; details: ERα_LBD (GST) 4 nM, Fluormone ES2 Green tracer, 60 min; read-out: ERα HTRF IC50
Sequence of ERα_LBD (GST) (P03372 311-547): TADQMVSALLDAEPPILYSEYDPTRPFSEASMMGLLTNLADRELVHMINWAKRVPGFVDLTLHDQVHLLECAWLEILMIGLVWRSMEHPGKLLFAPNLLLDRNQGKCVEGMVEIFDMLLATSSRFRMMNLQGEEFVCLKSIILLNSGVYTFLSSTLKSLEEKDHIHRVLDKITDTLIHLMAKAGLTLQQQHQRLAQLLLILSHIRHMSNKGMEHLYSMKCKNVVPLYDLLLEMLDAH
In short: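 Competitive TR-FRET displacement of Fluormone ES2 Green tracer (3 nM) from GST-tagged human ERα LBD (4 nM) with Tb anti-GST (2 nM), in nuclear receptor buffer K plus 5 mM DTT, 1% DMSO. 60 min at room temperature, dark; 520/495 nm ratio vs log[compound] fitted sigmoidally for IC50.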

MCF-7 cells = assay: CellTiter-Glo (CTG) cell proliferation assay in MCF-7 cells; type: cell-based; details: Homo sapiens, MCF7, 144 h, MCF-7 cell proliferation, Day 6
Excerpt: (§1) CellTiter-Glo® (CTG) Assays in MCF-7 and T47D Cell Lines.
(§2) In vitro Assay: MCF-7 and T47D CTG assay

ER in MCF-7 cells = ER in MCF-7 cells (Homo sapiens (Human), UniProt P03372); assay: In-cell Western (ICW) ER degradation assay in MCF-7 cells; type: cell-based; details: for DC50: MCF-7, ER degradation, read-out: MCF7 DC50
Sequence of ER in MCF-7 cells (P03372 whole entry): as the sequence (P03372 whole entry) above

T47D cells = assay: CellTiter-Glo (CTG) cell proliferation assay in T47D cells; type: cell-based; details: Homo sapiens, 144 h, Day 6
Excerpt: as §1, §2

CRBN/DDB1 = CRBN/DDB1 (Homo sapiens (Human), UniProt Q96SW2); type: binding; details: His tagged CRBN+DDB1, Cy5-labeled Thalidomide probe, one hour; read-out: CRBN HTRF IC50
Sequence of CRBN/DDB1 (Q96SW2 whole entry, species assumed): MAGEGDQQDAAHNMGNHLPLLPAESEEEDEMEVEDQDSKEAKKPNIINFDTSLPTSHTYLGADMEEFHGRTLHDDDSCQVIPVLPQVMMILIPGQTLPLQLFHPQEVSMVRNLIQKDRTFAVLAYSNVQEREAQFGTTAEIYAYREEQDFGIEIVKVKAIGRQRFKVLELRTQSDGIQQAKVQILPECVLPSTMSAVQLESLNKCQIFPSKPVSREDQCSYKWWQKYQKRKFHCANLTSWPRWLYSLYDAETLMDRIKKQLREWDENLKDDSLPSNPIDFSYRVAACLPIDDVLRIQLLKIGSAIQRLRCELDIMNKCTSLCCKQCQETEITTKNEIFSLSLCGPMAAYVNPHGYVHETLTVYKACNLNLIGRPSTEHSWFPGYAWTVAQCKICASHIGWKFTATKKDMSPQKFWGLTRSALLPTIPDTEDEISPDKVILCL
Sequence of CRBN/DDB1 (Q16531 whole entry partner, species assumed): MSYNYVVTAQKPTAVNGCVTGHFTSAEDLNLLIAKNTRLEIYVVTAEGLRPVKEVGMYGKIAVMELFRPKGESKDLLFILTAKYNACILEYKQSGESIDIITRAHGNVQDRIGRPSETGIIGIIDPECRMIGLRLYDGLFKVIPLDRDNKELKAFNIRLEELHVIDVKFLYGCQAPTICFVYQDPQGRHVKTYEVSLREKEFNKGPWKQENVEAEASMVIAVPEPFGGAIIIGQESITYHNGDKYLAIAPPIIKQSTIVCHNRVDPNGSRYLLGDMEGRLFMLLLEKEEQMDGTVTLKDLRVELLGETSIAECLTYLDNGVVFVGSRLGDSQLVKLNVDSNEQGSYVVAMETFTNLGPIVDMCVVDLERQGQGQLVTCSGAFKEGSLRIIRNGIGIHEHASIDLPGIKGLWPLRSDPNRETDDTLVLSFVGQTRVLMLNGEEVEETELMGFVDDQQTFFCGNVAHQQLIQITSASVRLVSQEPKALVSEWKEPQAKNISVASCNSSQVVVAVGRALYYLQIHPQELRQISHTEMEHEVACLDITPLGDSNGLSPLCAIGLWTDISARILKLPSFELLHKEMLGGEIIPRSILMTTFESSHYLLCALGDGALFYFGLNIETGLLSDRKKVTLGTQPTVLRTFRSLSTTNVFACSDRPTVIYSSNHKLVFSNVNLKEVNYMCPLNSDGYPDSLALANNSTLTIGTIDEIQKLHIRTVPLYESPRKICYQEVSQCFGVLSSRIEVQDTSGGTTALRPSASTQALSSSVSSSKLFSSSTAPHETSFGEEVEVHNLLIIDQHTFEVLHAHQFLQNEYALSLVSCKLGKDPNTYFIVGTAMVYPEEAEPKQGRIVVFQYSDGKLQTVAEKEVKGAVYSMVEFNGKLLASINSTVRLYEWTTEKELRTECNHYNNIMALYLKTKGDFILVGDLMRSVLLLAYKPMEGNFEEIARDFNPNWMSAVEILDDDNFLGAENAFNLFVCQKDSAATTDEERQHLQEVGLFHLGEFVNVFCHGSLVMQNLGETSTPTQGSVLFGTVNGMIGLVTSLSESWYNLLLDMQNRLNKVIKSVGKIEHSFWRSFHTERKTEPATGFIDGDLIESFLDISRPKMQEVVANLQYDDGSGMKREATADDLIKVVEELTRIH
Procedure: The binding potency was determined using HTRF assay technology (Perkin Elmer). Compounds were serially diluted in DMSO and […] volume was transferred to white 384-well plate.

[1] = MCF7, MCF-7, maximal ER degradation, 16 hrs treatment, read-out: MCF7 Dmax
[2] = MCF7, read-out: MCF7 Dmax, MCF-7, maximal ER degradation, 16 hrs treatment

| Structure (SMILES) | DC50 (ER in T47D cells) [µM] | Dmax (ER in T47D cells) [%] | IC50 (ERα_LBD (GST)) [µM] | IC50 (MCF-7 cells) [µM] | Dmax (ER in MCF-7 cells; [1]) [%] | DC50 (ER in MCF-7 cells; 16 hrs treatment) [µM] | IC50 (T47D cells) [µM] | Dmax (ER in MCF-7 cells; [2]) [%] | IC50 (CRBN/DDB1) [µM] |
| --- | --- | --- | --- | --- | --- | --- | --- | --- | --- |
| COc1cc(N2CCC3(CC2)CC(CN2CCC(c4ccc(N[C@@H]5CCC(=O)NC5=O)cc4)CC2)C3)c(F)cc1[C@@H]1c2ccc(O)cc2CC[C@@H]1c1ccccc1 (single isomer, unassigned) [Compound A31] | < 0.001 | > 75 | < 0.01 | 0.01 to 0.1 | 50 to 75 | < 0.001 | > 0.1 | – | – |
| COc1cc(N2CCC(CN3CCN4c5cc6c(cc5OC[C@H]4C3)C(=O)N([C@@H]3CCC(=O)NC3=O)C6)CC2)ccc1[C@H]1c2ccc(O)cc2CC[C@H]1c1ccccc1 (stereo in doubt) [Compound A34, (R)-3-((R)-3-((1-(4-((1R,2R)-6-hydroxy-2-phenyl-1,2,3,4-tetrahydronaphthalen-1-yl)-3-methoxyphenyl)piperidin-4-yl)methyl)-8-oxo-1,2,3,4,4a,5,8,10-octahydro-9H-pyrazino[1′,2′: 4,5][1,4]oxazino[2,3-f]isoindol-9-yl)piperidine-2,6-dione] | < 0.001 | > 75 | – | < 0.01 | – | < 0.001 | < 0.01 | > 75 | – |
| COc1cc(N2CCC(CN3CCN4c5ccc6c(c5OCC4C3)CN([C@H]3CCC(=O)NC3=O)C6=O)CC2)c(F)cc1[C@@H]1c2ccc(O)cc2CC[C@@H]1c1ccccc1 (stereo in doubt) [Compound A35, (S)-3-((S)-7-((1-(2-fluoro-4-((1S,2S)-6-hydroxy-2-phenyl-1,2,3,4-tetrahydronaphthalen-1-yl)-5-methoxyphenyl)piperidin-4-yl)methyl)-1-oxo-1,3,5,5a,6,7,8,9-oCtahydro-2H-pyrazino[1′,2′: 4,5][1,4]oxazino[2,3-e]isoindol-2-yl)piperidine-2,6-dione] | < 0.001 | > 75 | < 0.01 | 0.01 to 0.1 | – | < 0.001 | 0.01 to 0.1 | > 75 | – |
| O=C1CC[C@H](N2Cc3cc4c(cc3C2=O)OC[C@@H]2CN(C[C@H]3COC5(C3)CN(c3ccc([C@@H]6c7ccc(O)cc7CC[C@@H]6c6ccccc6)cc3)C5)CCN42)C(=O)N1 [Compound A72, (S)-3-((S)-3-(((S)-2-(4-((1R, 2S)-6-hydroxy-2-phenyl-1,2,3,4-tetrahydronaphthalen-1-yl)phenyl)-5-oxa-2-azaspiro [3.4]octan-7-yl)methyl)-8-oxo-1,2,3,4,4a,5,8,10-octahydro-9H-pyrazino[1′,2′:4,5][1,4]oxazino[2,3-f]isoindol-9-yl)-piperidine-2,6-dione] | < 0.001 | > 75 | < 0.01 | < 0.01 | 50 to 75 | < 0.001 | – | – | 0.05 to 0.5 |
| O=C1CC[C@H](N2Cc3cc4c(cc3C2=O)OC[C@@H]2CN(C[C@@H]3COC5(C3)CN(c3ccc([C@@H]6c7ccc(O)cc7CC[C@@H]6c6ccccc6)cc3)C5)CCN42)C(=O)N1 [Compound A73, (S)-3-((S)-3-(((R)-2-(4-((1R,2S)-6-hydroxy-2-phenyl-1,2,3,4-tetrahydronaphthalen-1-yl)phenyl)-5-oxa-2-azaspiro[3.4]octan-7-yl)methyl)-8-oxo-1,2,3,4,4a,5,8,10-octahydro-9H-pyrazino[1′,2′:4,5][1,4]oxazino[2,3-f]isoindol-9-yl)piperidine-2,6-dione] | < 0.001 | > 75 | < 0.01 | 0.01 to 0.1 | > 75 | < 0.001 | – | – | 0.5 to 5 |
